Experiments:
β 2-AR [1] = conditions: on β 2-AR; response relative to isoproterenol; cited from earlier work
Immobilized β 2-AR = system: T1, Immobilized β 2-AR; experiment: Specificity and stability of the oriented β 2-AR column (retention of control drugs); format: binding, Sus scrofa; conditions: 20 mM phosphate buffer (pH 7.4), 0.2 mL/min; for Retention times, Immobilized β 2-AR: 37 °C, void time 1.6 min
T1 construct: made in house; host or cells: E. coli BL21 (DE3)
Protocol: (§1) The column containing the oriented immobilised β 2-AR was prepared by packing the stationary phase into a stainless steel column (2.1 mm×5.0 cm) using the slurry method at a pressure of 4.0×10^7 Pa. Phosphate buffer (20 mM, pH 7.4) was used as the slurry solution. The control column containing exposed silica gel and attached histidine was prepared using the same synthesis method as that of the β 2-AR column.
(§2) The mobile phases were prepared by adding 0 to 40 µM of ephedrine hydrochloride as the competing agent to 20 mM phosphate buffer (pH 7.4). All of the mobile phases were filtrated with 0.45 µm Millipore HV filters and degassed by ultrasonication before HPAC analysis. Working solutions of ephedrine and pseudoephedrine were prepared by dissolving the drugs in phosphate buffer (20 mM, pH 7.4) to a concentration of 1.0 mM. The detection wavelength was 220 nm with an injection of 5.0 µL for each drug. The flow rate was 0.2 mL/min for all of the analyses. […] The capacity factor (k') was calculated by detecting the retention time in triplicate for each injected sample using the equation k' = (tR−t0)/t0. When the injection solute was pseudoephedrine, Eq. (1) was used to plot the curve of 1/(k'-X) and [A], whereas Eq. (2) was used to achieve the plot between [drawing 5] and [A] when ephedrine was used as the analyte.
The specificity of the oriented β 2-AR column was tested by determining the retention times of specific drugs on the receptor.

papillary muscle = system: papillary muscle; parameters: method as in PMID 3004791; conditions: positive inotropic effect on the papillary muscle; cited from earlier work
wild-type β 2-AR = molecular target: wild-type β 2-AR; parameters: method as in PMID 8095262; conditions: read-out: dissociation constant; cited from earlier work
β2-ARGsαS = molecular target: β2-ARGsαS; parameters: method as in PMID 9478963; conditions: read-out: dissociation constant; cited from earlier work
β 2-AR [2] = molecular target: T2, β 2-AR (Sus scrofa, UniProt Q28997); experiment: Thermodynamic study (zonal elution at 10-45 °C, van't Hoff equation) on oriented immobilised β 2-AR; format: binding; conditions: for decrease of association constant / decrease of capacity factor / increase of binding sites: 10 °C to 45 °C; for capacity factor on the β 2-AR column: concentration 4.0 µM; for Kd: Association constant; for main force of the binding: semi-empirical rules of Ross et al.; for ΔS^θ: van't Hoff plot, 10-45 °C
T2 construct: made in house; host or cells: E. coli BL21 (DE3)
T2 sequence (Q28997 whole entry): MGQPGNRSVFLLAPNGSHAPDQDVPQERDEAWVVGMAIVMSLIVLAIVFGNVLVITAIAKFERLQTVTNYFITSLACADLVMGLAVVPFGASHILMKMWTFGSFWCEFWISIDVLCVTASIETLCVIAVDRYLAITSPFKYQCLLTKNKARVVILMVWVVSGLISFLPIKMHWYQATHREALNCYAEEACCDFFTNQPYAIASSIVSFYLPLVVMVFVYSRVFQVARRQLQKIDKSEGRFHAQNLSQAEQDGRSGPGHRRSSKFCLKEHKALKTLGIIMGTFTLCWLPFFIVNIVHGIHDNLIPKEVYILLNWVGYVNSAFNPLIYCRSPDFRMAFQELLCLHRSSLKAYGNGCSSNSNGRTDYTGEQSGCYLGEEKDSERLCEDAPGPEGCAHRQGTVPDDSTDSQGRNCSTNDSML
From the text: The thermodynamic interaction between β 2-AR and ephedrine plus pseudoephedrine was described by the van't Hoff equation, listed as Eq. (3) and (4). [drawing 3] (3) [drawing 4] (4)
In these equations, R is the ideal gas constant (8.31 J/mol/K), and T is the temperature in Kelvin. According to the semi-empirical rules summarised by Ross et al., when ΔG^θ<0, ΔH^θ>0 and ΔS^θ>0, hydrophobic interaction is the main interaction force during the binding process of a drug to protein. […] If ΔG^θ<0, ΔH^θ<0 and ΔS^θ<0, Van der Waals forces or hydrogen bonds are the major forces of the binding.
The thermodynamic investigation of ephedrine and pseudoephedrine on oriented immobilised β 2-AR was performed at 10, 20, 30, 37 and 45 °C. Eq. (3) and (4) were used to calculate the free energy, enthalpy and entropy during the binding of the two drugs to the receptor. The semi-empirical rules by Ross et al. were utilised to reveal the binding mechanism process of the two drugs to β 2-AR.

β 2-AR [3] = molecular target: T2, β 2-AR; experiment: Zonal elution on oriented immobilised β 2-AR column (HPAC); format: binding; conditions: for concentration of the binding site / capacity factor k′ / association constant / association constant KA: 37 °C; for types of binding site on β 2-AR: linear zonal elution plot
Protocol: The binding of ephedrine and pseudoephedrine to the oriented immobilised β 2-AR was determined by zonal elution. The theory assumes that a known concentration of a competing agent (I) continuously passes through a column containing an immobilised ligand (L) while the injecting volume of an analyte (A) is small enough to be neglected compared with the concentration of I in the mobile phase. Assuming I and A have direct competition at a single binding site on L and the interactions have association/dissociation kinetics, Eq. (1) can be used to calculate the binding of A and I to L [24], [25]. [drawing 1] (1) where X is the capacity factor for A due to the existence of a second type of binding site on the column, and k' is the overall capacity factors of A ascribed to all the types of sites. In this case, the equation assumes the capacity factors of A produced by the individual sites are additive, and an independent estimate of the capacity factors due to the second type of site can be obtained, allowing for the capacity factor attributed to the first type of site 1 (Site 1) to be measured by k 1' = k'-X.
When the column is equilibrated with an eluent at concentration [A] and [I] equal to zero, and the retention of compound A is injected as a perturbation, Eq. (2) is used to determine the binding of A to L: [drawing 2] (2)
Assuming a single type of binding site, a linear expression can be obtained by plotting 1/sqrt (k') as a function of [A] to determine mL and K A. For two types of binding sites, a second term is added to the k' expressions.
as §1, §2

[4] = 12 µM ephedrine in mobile phase
[5] = 24 µM ephedrine in mobile phase
[6] = 30 µM ephedrine in mobile phase

SMILES: CN[C@H](C)[C@@H](O)c1ccccc1 [1S,2R-ephedrine]
- EC50 (β 2-AR [1]): 72 µM

SMILES: CN(C)C(=O)Oc1cc(OC(=O)N(C)C)cc(C(O)CNC(C)(C)C)c1 (centres unmarked) [bambuterol]
- peak retained or non-retained on β 2-AR column (Immobilized β 2-AR): Retained
- Retention times, Immobilized β 2-AR (Immobilized β 2-AR): 49.1 min

SMILES: CC(C)NCC(O)c1ccccc1Cl (centres unmarked) [clorprenaline]
- peak retained or non-retained on β 2-AR column (Immobilized β 2-AR): Retained
- Retention times, Immobilized β 2-AR (Immobilized β 2-AR): 9.9 min
- Retention times, Immobilized β 2-AR (Immobilized β 2-AR; listed as Clorprenaline): 12.5 min

SMILES: CN[C@@H](C)[C@H](O)c1ccccc1 [ephedrine, 1R,2S-ephedrine]
- pD2 (papillary muscle): about 5.95
- Kd (wild-type β 2-AR): 8 µM
- Kd (β2-ARGsαS): 5.1 ± 1.3 µM
- binding sites (β 2-AR [2]; 10 °C): 807 µM
- decrease of association constant (β 2-AR [2]): 1.4 fold
- decrease of capacity factor (β 2-AR [2]): 1.2 fold
- increase of binding sites (β 2-AR [2]): 1.2 fold
- capacity factor on the β 2-AR column (β 2-AR [2]; 10 °C): 5.40
- contribution of ΔH^θ to ΔG^θ (β 2-AR [2]; 37 °C): 29.15%
- contribution of ΔS^θ to ΔG^θ (β 2-AR [2]; 37 °C): 70.85%
- binding sites (β 2-AR [2]; 45 °C): 948 µM
- capacity factor on the β 2-AR column (β 2-AR [2]; 45 °C): 4.63
- Kd (β 2-AR [2]; 283.15 K): 139 µM
- Kd (β 2-AR [2]; 293.15 K): 149 µM
- Kd (β 2-AR [2]; 303.15 K): 161 µM
- Kd (β 2-AR [2]; 310.15 K): 168 µM
- Kd (β 2-AR [2]; 318.15 K): 193 µM
- main force of the binding (β 2-AR [2]): Electrostatic interaction
- ΔS^θ (β 2-AR [2]): 50.94±0.31 J/mol·K
- Kd (β 2-AR [3]): 168 µM
- concentration of the binding site (β 2-AR [3]): (8.92±0.06) ×10^−4 M
- capacity factor k′ (β 2-AR [3]; 4 µM ephedrine in mobile phase): 5.01±0.02
- capacity factor k′ (β 2-AR [3]; 8 µM ephedrine in mobile phase): 4.84±0.02
- capacity factor k′ (β 2-AR [3]; [4]): 4.58±0.03
- capacity factor k′ (β 2-AR [3]; 20 µM ephedrine in mobile phase): 4.31±0.01
- capacity factor k′ (β 2-AR [3]; [5]): 4.08±0.01
- capacity factor k′ (β 2-AR [3]; [6]): 3.80±0.01
- capacity factor k′ (β 2-AR [3]; 34 µM ephedrine in mobile phase): 3.64±0.01
- association constant (β 2-AR [3]; direct competitive study, pseudoephedrine injected, ephedrine as mobile phase additive): (5.98±0.24)×10^3 /M
- association constant KA (β 2-AR [3]; injection analyte ephedrine (self-competitive)): KA ephedrine = (5.94±0.05)×10^3 M^−1
- association constant KA (β 2-AR [3]; injection analyte ephedrine (self-competitive), listed as 1R,2S-ephedrine): (5.94±0.05)×10^3 M^−1
- association constant KA (β 2-AR [3]; injection analyte pseudoephedrine (direct competitive, ephedrine in mobile phase)): KA ephedrine = (5.98±0.24)×10^3 M^−1
- association constant (β 2-AR [3]; self-competitive study, ephedrine as analyte and competing agent): (5.94±0.05)×10^3 /M
- types of binding site on β 2-AR (β 2-AR [3]): Only one type of binding site

SMILES: COC(=O)CCc1ccc(OCC(O)CNC(C)C)cc1 (centres unmarked) [esmolol]
- peak retained or non-retained on β 2-AR column (Immobilized β 2-AR): Non-retained
- Retention times, Immobilized β 2-AR (Immobilized β 2-AR): 1.6 min

SMILES: CN[C@@H](C)[C@@H](O)c1ccccc1 [pseudoephedrine, 1S,2S-pseudoephedrine]
- EC50 (β 2-AR [1]): 309 µM
- binding sites (β 2-AR [2]; 10 °C): 807 µM
- decrease of association constant (β 2-AR [2]): 1.5 fold
- decrease of capacity factor (β 2-AR [2]): 1.2 fold
- increase of binding sites (β 2-AR [2]): 1.2 fold
- capacity factor on the β 2-AR column (β 2-AR [2]; 10 °C): 6.36
- binding sites (β 2-AR [2]; 45 °C): 948 µM
- capacity factor on the β 2-AR column (β 2-AR [2]; 45 °C): 5.60
- Kd (β 2-AR [2]; 283.15 K): 202 µM
- Kd (β 2-AR [2]; 293.15 K): 239 µM
- Kd (β 2-AR [2]; 303.15 K): 249 µM
- Kd (β 2-AR [2]; 310.15 K): 263 µM
- Kd (β 2-AR [2]; 318.15 K): 299 µM
- main force of the binding (β 2-AR [2]): electrostatic forces
- ΔS^θ (β 2-AR [2]): 44.13±0.01 J/mol·K
- concentration of the binding site (β 2-AR [3]): (8.92±0.06) ×10^−4 M
- capacity factor k′ (β 2-AR [3]; 2 µM ephedrine in mobile phase): 5.87±0.01
- capacity factor k′ (β 2-AR [3]; 4 µM ephedrine in mobile phase): 5.81±0.01
- capacity factor k′ (β 2-AR [3]; 8 µM ephedrine in mobile phase): 5.73±0.01
- capacity factor k′ (β 2-AR [3]; [4]): 5.66±0.01
- capacity factor k′ (β 2-AR [3]; 16 µM ephedrine in mobile phase): 5.54±0.03
- capacity factor k′ (β 2-AR [3]; [5]): 5.47±0.03
- capacity factor k′ (β 2-AR [3]; [6]): 5.38±0.01
- types of binding site on β 2-AR (β 2-AR [3]): Only one type of binding site

SMILES: COc1cc2nc(N3CCN(C(=O)C4CCCO4)CC3)nc(N)c2cc1OC (centres unmarked) [terazosin]
- peak retained or non-retained on β 2-AR column (Immobilized β 2-AR): Non-retained
- Retention times, Immobilized β 2-AR (Immobilized β 2-AR): 1.6 min

SMILES: CC(C)(C)NCC(O)c1ccccc1Cl (centres unmarked) [tobuterol]
- peak retained or non-retained on β 2-AR column (Immobilized β 2-AR): Retained
- Retention times, Immobilized β 2-AR (Immobilized β 2-AR): 12.5 min
- Retention times, Immobilized β 2-AR (Immobilized β 2-AR; listed as Tobuterol): 9.9 min

Reference: paper PMC3991622, “Immobilised Histidine Tagged β 2-Adrenoceptor Oriented by a Diazonium Salt Reaction and Its Application in Exploring Drug-Protein Interaction Using Ephedrine and Pseudoephedrine as Probes” (PLoS ONE, 2014)
